Assay results taken from article PMC9046087, “Structural basis of tethered agonism of the adhesion GPCRs ADGRD1 and ADGRF1” (Nature, 2022).
Blank lines part the entries; values can stand above or below the molecule they belong to.

Experiments:
ADGRF1 [1] = test: Identification of phospholipid ligands by LC–MS/MS; assay type: binding, human
Method: The identification of phospholipids specifically bound to ADGRF1 was performed as previously described[33],[50] with minor modifications. In brief, ADGRF1 and control ADGRD1 protein were reduced with 5 mM TCEP at 25 °C for 30 min and alkylated with 20 mM idoacetamide at 25 °C for 30 min. Then the protein samples were digested with trypsin (Promega) at an enzyme-to-protein ratio of 1:50 (w/w) at 37 °C overnight. The digested proteins were dried in a vacuum concentrator and then extracted with 400 μl of ice-cold methanol:water (9:1, v/v) by vortex and sonication. After centrifugation at 12,000g for 15 min at 4 °C, the supernatants were collected and lyophilized under vacuum. The lipid extracts were resuspended in methanol:chloroform (9:1, v/v) to an equivalent concentration of 2 μM. Samples were analysed on a Q Exactive mass spectrometer (Thermo Fisher Scientific) operating in the positive ion mode coupled to a Waters Acquity UPLC system (Waters). […] The specificity of lipid binding to ADGRF1 was assessed by the ratio of EIC peak areas for each lipid in the ADGRF1 versus the control sample. […]

[2] = system: neurogenesis, neuritogenesis and synaptogenesis; conditions: ref [35]; cited from earlier work
ADGRF1 [3] = conditions: cited from earlier work
[4] = target: T1, ADGRD1 (GPR133), residues T545–T827 (ADGRD1-construct) (human) (UniProt Q6QNK2)
T1 sequence: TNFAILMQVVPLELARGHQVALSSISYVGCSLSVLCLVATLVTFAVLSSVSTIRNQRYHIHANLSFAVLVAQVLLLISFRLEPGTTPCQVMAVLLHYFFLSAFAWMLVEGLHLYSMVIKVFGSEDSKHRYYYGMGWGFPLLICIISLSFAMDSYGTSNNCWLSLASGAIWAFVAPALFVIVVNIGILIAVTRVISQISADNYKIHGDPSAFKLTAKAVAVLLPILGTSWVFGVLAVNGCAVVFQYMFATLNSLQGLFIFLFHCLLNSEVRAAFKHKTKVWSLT

[5] = target: T2, ADGRF1 (GPR110), residues V251–K860 (ADGRF1-construct 1) (human) (UniProt Q5T601)
T2 sequence: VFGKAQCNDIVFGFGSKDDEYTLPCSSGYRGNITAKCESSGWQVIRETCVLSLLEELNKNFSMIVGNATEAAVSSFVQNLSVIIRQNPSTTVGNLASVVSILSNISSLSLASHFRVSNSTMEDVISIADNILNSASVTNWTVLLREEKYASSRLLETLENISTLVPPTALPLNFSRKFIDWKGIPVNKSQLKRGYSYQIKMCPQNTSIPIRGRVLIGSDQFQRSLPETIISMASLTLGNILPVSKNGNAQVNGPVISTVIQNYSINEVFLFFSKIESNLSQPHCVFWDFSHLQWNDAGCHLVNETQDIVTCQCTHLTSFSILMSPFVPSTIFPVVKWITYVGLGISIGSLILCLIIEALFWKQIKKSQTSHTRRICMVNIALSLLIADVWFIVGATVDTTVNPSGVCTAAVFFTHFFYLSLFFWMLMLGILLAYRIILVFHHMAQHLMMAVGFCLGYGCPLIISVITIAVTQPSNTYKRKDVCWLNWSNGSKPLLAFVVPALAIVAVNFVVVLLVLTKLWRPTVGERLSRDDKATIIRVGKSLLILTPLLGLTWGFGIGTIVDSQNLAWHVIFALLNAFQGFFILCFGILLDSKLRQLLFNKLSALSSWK

Molecule: CCCCCCCCCCCCCCCC(=O)OC[C@@H](O)COP(=O)([O-])OCC[N+](C)(C)C [LPC 16:0]
- specific binding to ADGRF1 (lipidomics) (ADGRF1 [1]; ADGRD1 as control, specific binder: mean EIC ratio > 2 and P < 0.05, n = 3): bound specifically to ADGRF1
- EIC peak ratio, ADGRF1 versus ADGRD1 (mean) (ADGRF1 [1]; ADGRD1 protein as control, methanol:water lipid extract, P < 0.05, three independent experiments): > 2

Molecule: CC/C=C\C/C=C\C/C=C\C/C=C\C/C=C\C/C=C\CCC(=O)NCCO [synaptamide, N-docosahexaenoylethanolamine]
- neurogenesis, neuritogenesis and synaptogenesis [2]: promotes neurogenesis, neuritogenesis and synaptogenesis
- stalk dependence of ADGRF1 activation (ADGRF1 [3]; believed to act through the extracellular GAIN domain, ref [36]): activates the receptor in a stalk-independent manner
- agonism at ADGRF1 (ADGRF1 [3]; ref [35]): endogenous small-molecule agonist for ADGRF1

Results, then the molecule that gave them:

- fold decrease in G protein activation of wild-type ADGRD1 in HEK293F cells (BRET assay with TRUPATH biosensors): potency of pF1 against that of pD1 [4]: 59 fold
Molecule: TSFSILMSPFVP [synthetic stalk peptide of ADGRF1 (pF1)]

- G protein activation of wild-type ADGRF1 in HEK293F cells (BRET assay with TRUPATH biosensors): EC50 of pD1 against that of pF1 [5]: 2 fold
Molecule: TNFAILMQVVPLE [synthetic stalk peptide of ADGRD1 (pD1)]
